Test results from publication PMC11189555, “Aryl amino acetamides prevent Plasmodium falciparum ring development via targeting the lipid-transfer protein PfSTART1” (Nature Communications, 2024).

Assays:
[1] = system: PopE-F10 M-833 resistant clone (PfSTART1 N330K); test: Growth inhibition assay (72 h, LDH activity); type: cell-based, Plasmodium falciparum; design: sample/DMSO: scale not given here
Method: (§1) The drug was then removed, and parasites were allowed to recover. Another cycle of drug treatment (3 μM M-833) was then resumed. The resistant lines were cloned out by limiting dilution (diluting the culture into a 96-well plate to achieve an average of ~0.3 parasites per well), prior to growth inhibition assays and genomic DNA (gDNA) extraction (DNeasy Blood and Tissue kit (Qiagen)[18].
(§2) Parasite growth assays with inhibitory compounds were performed as per[11] and are fully described in the Supplementary Information. […]
(§3) Growth inhibition assays. Synchronised ring-stage parasites (0.3-0.6% parasitemia, 2% haematocrit) were grown for 72 h in a serial-dilution of the compound under […]
(§4) and compound 4. Note that M-833 was first purchased from MolPort (MolPort -002-267-916) then made in-house at WEHI: the differences observed in EC50s across experiments are attributed to the different batches of M -833. For some experiments, 0, 0.25 or 2.5 mM of glucosamine (GlcN) was also added. Experiments were set up in technical duplicates or triplicates. Following a freeze -thaw cycle, lactate dehydrogenase (LDH) activity was assessed as an indicator of parasite growt h 5. 30 μL of parasite culture was incubated for 30 min in the dark with 75 μL Malstat mixture (0.1 M Tris pH 9.0, 20 g/L lactic acid, pH 7.5, 0.2% Triton-X100, 0.5 g/L acetylpyridine adenine dinucleotide (APAD, Sigma), 200 μg/mL nitroblue tetrazolium (NBT; Sigma), 1 μg/mL phenozine ethosulfate (PES; Sigma)). Absorbance was then measured at 650 nm, transformed using the formula below, plotted against the logarithm of the concentrations, and a non-linear regression (log(inhibitor) vs. response, variable slope) was calculated using GraphPad Prism to assess the half-inhibitory […]
(§5) Growth inhibition % = (1 − average(sample)− average(uRBC)) ∗ 100 […]
(§6) The DMSO samples were also used to assess growth of parasite in the presence of 0.25 and 2.5 mM GlcN (normalised by DMSO in 0 mM GlcN). […]

[2] = system: PopD-D7 M-833 resistant clone (PfSTART1 N309K); test: Growth inhibition assay (72 h, LDH activity); type: cell-based, Plasmodium falciparum
Method: as §1, §2, §3, §4, §5, §6

**Q.** With `CN(C(=O)C(C)(C)Nc1ccc(Cl)c(S(=O)(=O)N2CCOCC2)c1)c1ccc(F)c(Cl)c1` [compound 4] as the molecule, how does the EC50 ([1]; Plasmodium falciparum, 72 h, Supplementary Table 1, PopE-F10 (N330K)) read?
**A.** 13.8 µM

**Q.** And the “resistance of the line compared with 3D7” value ([1]; PopE-F10 (N330K), Fig 4B)?
**A.** No change in EC50

**Q.** What about the sample/DMSO ([1]; PopE-F10, 0.00152416 uM, biological replicate 3) of the same molecule?
**A.** -10.997

**Q.** And the sample/DMSO ([1]; PopE-F10, 0.00304832 uM, biological replicate 1)?
**A.** -14.4828

**Q.** And the sample/DMSO ([1]; PopE-F10, 0.00457247 uM, biological replicate 3)?
**A.** -14.249

**Q.** And the sample/DMSO ([1]; PopE-F10, 0.00914495 uM, biological replicate 1)?
**A.** -25.5172

**Q.** And the sample/DMSO ([1]; PopE-F10, 0.0137174 uM, biological replicate 3)?
**A.** -22.0582

**Q.** And the sample/DMSO ([1]; PopE-F10, 0.0274348 uM, biological replicate 1)?
**A.** -44.0394

**Q.** What about the sample/DMSO ([1]; PopE-F10, 0.0411523 uM, biological replicate 3) of the same molecule?
**A.** -25.9307

**Q.** What about the sample/DMSO ([1]; PopE-F10, 0.078125 uM, biological replicate 2) of the same molecule?
**A.** -21.3563

**Q.** What about the sample/DMSO ([1]; PopE-F10, 0.0823045 uM, biological replicate 1) of the same molecule?
**A.** -49.1626

**Q.** And the sample/DMSO ([1]; PopE-F10, 0.123457 uM, biological replicate 3)?
**A.** -32.7771

**Q.** And the sample/DMSO ([1]; PopE-F10, 0.15625 uM, biological replicate 2)?
**A.** -19.0708

**Q.** What about the sample/DMSO ([1]; PopE-F10, 0.246914 uM, biological replicate 1) of the same molecule?
**A.** -58.8177

**Q.** What about the sample/DMSO ([1]; PopE-F10, 0.3125 uM, biological replicate 2) of the same molecule?
**A.** -21.7123

**Q.** And the sample/DMSO ([1]; PopE-F10, 0.37037 uM, biological replicate 3)?
**A.** -39.4309

**Q.** And the sample/DMSO ([1]; PopE-F10, 0.625 uM, biological replicate 2)?
**A.** -9.966

**Q.** What about the sample/DMSO ([1]; PopE-F10, 0.740741 uM, biological replicate 1) of the same molecule?
**A.** -40.7882

**Q.** And the sample/DMSO ([1]; PopE-F10, 1.11111 uM, biological replicate 3)?
**A.** -43.6671

**Q.** What about the sample/DMSO ([1]; PopE-F10, 1.25 uM, biological replicate 2) of the same molecule?
**A.** -1.293

**Q.** And the sample/DMSO ([1]; PopE-F10, 2.22222 uM, biological replicate 1)?
**A.** -40.4926

**Q.** What about the sample/DMSO ([1]; PopE-F10, 2.5 uM, biological replicate 2) of the same molecule?
**A.** 7.269

**Q.** What about the sample/DMSO ([1]; PopE-F10, 3.33333 uM, biological replicate 3) of the same molecule?
**A.** -37.5053

**Q.** And the sample/DMSO ([1]; PopE-F10, 5 uM, biological replicate 2)?
**A.** 28.3814

**Q.** What about the sample/DMSO ([1]; PopE-F10, 6.66667 uM, biological replicate 1) of the same molecule?
**A.** -11.4286

**Q.** What about the sample/DMSO ([1]; PopE-F10, 10 uM, biological replicate 2) of the same molecule?
**A.** 46.5155

**Q.** What about the sample/DMSO ([1]; PopE-F10, 10 uM, biological replicate 3) of the same molecule?
**A.** 5.884

**Q.** And the sample/DMSO ([1]; PopE-F10, 20 uM, biological replicate 1)?
**A.** 42.9557

**Q.** And the sample/DMSO ([1]; PopE-F10, 20 uM, biological replicate 2)?
**A.** 83.0461

**Q.** What about the “Fold change compared to 3D7” value ([1]; Supplementary Table 1, EC50 on PopE-F10 vs 3D7) of the same molecule?
**A.** 1.4 fold

**Q.** And the EC50 ([2]; Plasmodium falciparum, Supplementary Table 1, PopD-D7 (N309K), 72 h, read-out: EC50)?
**A.** 15.7 µM

**Q.** And the “resistance of the line compared with 3D7” value ([2]; PopD-D7 (N309K), Fig 4B)?
**A.** No change in EC50

**Q.** And the sample/DMSO ([2]; PopD-D7, 0.00152416 uM, biological replicate 3)?
**A.** -12.3682

**Q.** What about the sample/DMSO ([2]; PopD-D7, 0.00304832 uM, biological replicate 1) of the same molecule?
**A.** -15.0464

**Q.** What about the sample/DMSO ([2]; PopD-D7, 0.00457247 uM, biological replicate 3) of the same molecule?
**A.** -16.5856

**Q.** And the sample/DMSO ([2]; PopD-D7, 0.00914495 uM, biological replicate 1)?
**A.** -23.9863

**Q.** And the sample/DMSO ([2]; PopD-D7, 0.0137174 uM, biological replicate 3)?
**A.** -19.1403

**Q.** And the sample/DMSO ([2]; PopD-D7, 0.0274348 uM, biological replicate 1)?
**A.** -36.3947

**Q.** And the sample/DMSO ([2]; PopD-D7, 0.0411523 uM, biological replicate 3)?
**A.** -26.0746

**Q.** What about the sample/DMSO ([2]; PopD-D7, 0.078125 uM, biological replicate 2) of the same molecule?
**A.** -26.6126

**Q.** And the sample/DMSO ([2]; PopD-D7, 0.0823045 uM, biological replicate 1)?
**A.** -40.9868

**Q.** And the sample/DMSO ([2]; PopD-D7, 0.123457 uM, biological replicate 3)?
**A.** -30.0892

**Q.** And the sample/DMSO ([2]; PopD-D7, 0.15625 uM, biological replicate 2)?
**A.** -24.0527

**Q.** What about the sample/DMSO ([2]; PopD-D7, 0.246914 uM, biological replicate 1) of the same molecule?
**A.** -42.7943

**Q.** What about the sample/DMSO ([2]; PopD-D7, 0.3125 uM, biological replicate 2) of the same molecule?
**A.** -25.1299

**Q.** What about the sample/DMSO ([2]; PopD-D7, 0.37037 uM, biological replicate 3) of the same molecule?
**A.** -34.7932

**Q.** What about the sample/DMSO ([2]; PopD-D7, 0.625 uM, biological replicate 2) of the same molecule?
**A.** -6.501

**Q.** What about the sample/DMSO ([2]; PopD-D7, 0.740741 uM, biological replicate 1) of the same molecule?
**A.** -38.9839

**Q.** And the sample/DMSO ([2]; PopD-D7, 1.11111 uM, biological replicate 3)?
**A.** -37.8751

**Q.** And the sample/DMSO ([2]; PopD-D7, 1.25 uM, biological replicate 2)?
**A.** 3.536

**Q.** What about the sample/DMSO ([2]; PopD-D7, 2.22222 uM, biological replicate 1) of the same molecule?
**A.** -23.9863

**Q.** And the sample/DMSO ([2]; PopD-D7, 2.5 uM, biological replicate 2)?
**A.** 14.2567

**Q.** What about the sample/DMSO ([2]; PopD-D7, 3.33333 uM, biological replicate 3) of the same molecule?
**A.** -28.5888

**Q.** And the sample/DMSO ([2]; PopD-D7, 5 uM, biological replicate 2)?
**A.** 26.676

**Q.** What about the sample/DMSO ([2]; PopD-D7, 6.66667 uM, biological replicate 1) of the same molecule?
**A.** 9.624

**Q.** And the sample/DMSO ([2]; PopD-D7, 10 uM, biological replicate 2)?
**A.** 49.8923

**Q.** And the sample/DMSO ([2]; PopD-D7, 10 uM, biological replicate 3)?
**A.** 18.8159

**Q.** And the sample/DMSO ([2]; PopD-D7, 20 uM, biological replicate 1)?
**A.** 64.3869

**Q.** What about the sample/DMSO ([2]; PopD-D7, 20 uM, biological replicate 2) of the same molecule?
**A.** 82.347

**Q.** And the “Fold change compared to 3D7” value ([2]; Supplementary Table 1, EC50 on PopD-D7 vs 3D7)?
**A.** 1.6 fold
